{
  "source": "paper PMC12189828",
  "about": "“Substitution of Proline Residues by 4-Fluoro-L-Proline Affects the Mechanism of the Proline-Rich Antimicrobial Peptide Api137” (Antibiotics, 2025)",
  "test_system": "50S subunit assembly / 70S ribosome in E. coli RN31",
  "assay": "Ribosome profile analysis (RPA), sucrose gradient of E. coli RN31 lysate",
  "assay_type": "cell-based, Escherichia coli",
  "details": "90 min",
  "note": "Where a SMILES comes first, the peptide text is derived from it. The star is where a group is joined. Orn(α-tetramethylguanidino) = CN(C)C(=N[C@@H](CCCN)C(=O)*)N(C)C",
  "data": [
    {"compound": "CC[C@H](C)[C@H](NC(=O)[C@H](Cc1ccc(O)cc1)NC(=O)[C@@H](NC(=O)[C@@H]1CCCN1C(=O)[C@H](CCCNC(=N)N)NC(=O)[C@H](CC(N)=O)NC(=O)[C@H](CC(N)=O)NC(=O)[C@H](CCCN)N=C(N(C)C)N(C)C)C(C)C)C(=O)N1CCC[C@H]1C(=O)N[C@@H](CCCNC(=N)N)C(=O)N1CCC[C@H]1C(=O)N[C@@H](CCCNC(=N)N)C(=O)N1CCC[C@H]1C(=O)N1CCC[C@H]1C(=O)N[C@@H](Cc1c[nH]cn1)C(=O)N1CCC[C@H]1C(=O)N[C@@H](CCCNC(=N)N)C(=O)N[C@@H](CC(C)C)C(=O)O", "note": "[Api137] ({Orn(α-tetramethylguanidino)}-NNRPVYIPRPRPPHPRL-OH; N-terminus and C-terminus assumed)", "values": [
      {"measurement": "RPA [pre-50S formation]", "setting": "E. coli RN31, 33% TSB, peptide 8 µg/mL, 5–25% sucrose gradient, n = 2 (Api137 n = 7)", "value": "yes"},
      {"measurement": "70S peak (area) relative to untreated control", "setting": "E. coli RN31, peptide 8 µg/mL, sucrose gradient profile", "value": "~ 50%"}
    ]}
  ]
}
